Experimental data reported in patent US9918472B2, “Animal repellent” (SCENT SCIENCE INTERNATIONAL INC., priority 2010, dated 2018).

Assays:
[1] = tested on: wild-type mice (O-MACS-Cre); experiment: Freezing test, quantification of fear reaction due to odor; type: in vivo, mouse; conditions: for Freezing time (%): mice, n=8, 20 min observation, value ± standard error, t-test vs 1,3-dioxolane; for freezing-inducing effect at too high a concentration: Example 3, FIG. 4, dilution series up to 1.082 mmol
Procedure: About 5- to 7-month-old littermate wild-type mice (O-MACS-Cre) were placed in the mouse cages set in a draft (one mouse per cage) to perform habituation for 20 min. Similarly, 20 min habituation was performed the next day. On day 3, odor pods containing odorant molecules were placed in the cages in the draft, and the mice were placed in the cages with odor pods. The behaviors of the mice from day 1 to day 3 were video-recorded and the freezing time was analyzed by FreezeFrame system manufactured by NeuroScience Inc. The time during which the mouse was motionless for 2 seconds or longer was measured as a freezing time, and the time of freezing during the 20 min observation time was shown in %. The freezing time on day 2 was shown as control without odor in the data. As the mice used for experiment, male mice were used to avoid abnormality in the olfactory sense due to the sexual cycle. […] The odor pod refers to an apparatus containing filter paper impregnated with odorant and placed in a plastic petri dish with a lid having a hole. In this experiment, 2 MB (2-methylbutyric acid) 45 μL (270.6 μmol) or TMT 35 μL (270.6 μmol) was used as the odorant molecule.
Using various compounds, the freezing test shown in Experimental Example 1 was performed. […] For the experiment, 270.6 μmol of odorant molecules were used. The abbreviations and the formal names of the odorant molecules used are as follows.
The influence of the concentration of the odorant molecule on the effect of inducing a freezing behavior was analyzed. […] The freezing behavior was analyzed by a method similar to that in Example 1. The amount of the odorant molecules used of the both compounds was 270.6 nmol for 0.001, 2.706 μmol for 0.01, 27.06 μmol for 0.1, 270.6 μmol for 1, and 1.082 mmol for 4. The odorant molecule concentration in the gas in the test system was measured by gas chromatography, and the presence of a dependency relationship between the amount of the odorant molecules used for the test and the odorant molecule concentration in the gas in the test system was confirmed.
Using the following test compounds (13 kinds), the freezing test shown in Experimental Example 1 was performed. […] For the experiment, 270.6 μmol of odorant compounds were used.

mice = experiment: Acclimation test (freezing time on daily odor exposure for 8 days); type: in vivo, mouse
Procedure: About 5- to 7-month-old littermate wild-type mice (O-MACS-Cre) were placed in the mouse cages set in a draft (one mouse per cage) to perform habituation for 20 min. Similarly, 20 min habituation was performed the next day. On day 3, odor pods containing odorant molecules were placed in the cages in the draft, and the mice were placed in the cages with odor pods. The behaviors of the mice from day 1 to day 3 were video-recorded and the freezing time was analyzed by FreezeFrame system manufactured by NeuroScience Inc. The time during which the mouse was motionless for 2 seconds or longer was measured as a freezing time, and the time of freezing during the 20 min observation time was shown in %. The freezing time on day 2 was shown as control without odor in the data. As the mice used for experiment, male mice were used to avoid abnormality in the olfactory sense due to the sexual cycle. Each experiment was performed with n=5. The odor pod refers to an apparatus containing filter paper impregnated with odorant and placed in a plastic petri dish with a lid having a hole. In this experiment, 2 MB (2-methylbutyric acid) 45 μL (270.6 μmol) or TMT 35 μL (270.6 μmol) was used as the odorant molecule.
Acclimation test: By the method of Experimental Example 1, mice (N=8) were forced to smell the test compound (2MT) every day for 8 days, and the freezing time (%) was measured over time. As a control, mice that were forced to learn to feel fear with the smell of anisole by a method including applying an electric shock immediately after smelling anisole (hereinafter to be also referred to as fear learning mice) were used. The aforementioned fear learning mice (N=8) were forced to smell anisole every day for 8 days, and the freezing time (%) was measured over time.

Row | Compound | Freezing time (%) ([1]; Example 4, 270.6 μmol odorant) | other results
1 | C1COCO1 [1,3-dioxolane, reference compound] | – | fear reaction of the comparison odorant ([1]; Example 4, odorant used as comparison for the t-test): does not induce a fear reaction
2 | CC1(C)NCCS1 [2,2-dimethylthiazolidine] | 29.3 ± 5.2 | –
3 | CC1=NCC(C)S1 (centres unmarked) [2,5-dimethyl-2-thiazoline] | 55.9 ± 4.4 | –
4 | Brc1nccs1 [2-bromothiazole] | 4.8 ± 1.6 | –
5 | CCc1nccs1 [2-ethylthiazole] | 7.3 ± 1.6 | –
6 | CSC1=NCCS1 [2-methylthio-2-thiazoline] | 6.2 ± 3.0 | –
7 | CC1=NCCS1 [2MT, 2-methyl-2-thiazoline] | 49.9 ± 3.0 | freezing-inducing effect at too high a concentration [1]: decreased effect; freezing time profile on smelling the odor every day for 8 days (mice; Example 5, FIG. 5, mice N=8, not conditioned): did not decrease but rather increased
8 | CC1CN=CS1 (centres unmarked) [5-methyl-2-thiazoline] | 39.6 ± 3.5 | –
9 | CC1CNCS1 (centres unmarked) [5-methylthiazolidine] | 4.2 ± 2.7 | –
10 | CC1=NC(C)SC1C (centres unmarked) [TMT, 2,4,5-trimethyl-3-thiazoline, reference compound] | – | freezing-inducing effect at too high a concentration [1]: decreased effect; freezing time compared with 2 MB (putrid odor) ([1]; Experimental Example 1, FIG. 1, mice n=5, 270.6 μmol odorant): longer freezing time
11 | COc1ccccc1 [anisole] | – | freezing time profile on smelling the odor every day (mice; Example 5, FIG. 5, fear learning mice, anisole every day for 8 days, N=8): decreased with time; freezing time with anisole the next day (mice; Example 5, fear learning mice (electric shock after smelling anisole), N=8): not less than 50%
12 | CCN=C=S [ethyl isothiocyanate] | 14.0 ± 4.5 | –
13 | CC1(C)CS1 [isobutylene sulfide] | 4.3 ± 1.9 | –
14 | C1CSCN1 [thiazolidine] | 18.2 ± 5.3 | –
15 | C1CSCCN1 [thiomorpholine] | 15.9 ± 2.5 | –
16 | c1ccsc1 [thiophene] | 2.7 ± 1.6 | –
